Laboratory results: patent publication US10053487B2, “Neuroactive 19-alkoxy-17(20)-Z-vinylcyano-substituted steroids, prodrugs thereof, and methods of treatment using same” (priority 2012, dated 2018)
Read-outs that look alike come from different tables or passages of the source.

What was measured:
[1] = target: T1, GABAA receptors (picrotoxin binding site); test: [35S]-TBPS displacement (non-competitive displacement from the picrotoxin binding site); settings: duplicate experiments performed in triplicate; ± SEM; read-out: Inhibition of [35S]-TBPS binding, IC50
T1 construct: other: duplicate experiments performed in triplicate; ± SEM; other: Hill coefficient
Experimental: (§1) The IC50 values for the compounds of Scheme 1 (i.e., Compounds 1 and 2) as non-competitive displacers of [^35S]-TBPS from the picrotoxin binding site on GABAA receptors are reported in Table 1.
(§2) Results presented are from duplicate experiments performed in triplicate. Error limits are calculated as standard error of the mean. Methods used are known in the art (see, e.g., E. Stastna, et al., Neurosteroid Analogues. 16. A New Explanation for the Lack of Anesthetic Effects in Δ^16-Alphaxalone and Identification of a Δ^17(20) Analogue with Potent Anesthetic Activity, J. Med. Chem., 54(11), pp. 3926-34 (2011)).

[2] = target: T2, rat α1β2γ2L type GABAA receptors expressed in Xenopus laevis oocytes (Rattus norvegicus, UniProt P62813+P63138); test: Oocyte electrophysiology: potentiation of chloride currents mediated by 2 μM GABA, and direct gating; assay type: cell-based; settings: ± SEM, N≥4; for Ratio of currents measured in the presence/absence of added compound, 0.1 μM: 0.1 μM compound; for Ratio of currents measured in the presence/absence of added compound, 0.1 μM / Ratio of currents measured in the presence/absence of added compound, 1 μM / Ratio of currents measured in the presence/absence of added compound, 10 μM: 2 μM GABA; for Ratio of currents measured in the presence/absence of added compound, 1 μM: 1 μM compound; for Ratio of currents measured in the presence/absence of added compound, 10 μM: 10 μM compound; for (gating) 10 μM: ratio of compound only current/2 μM GABA current: direct current gated by 10 μM compound in the absence of GABA
T2 construct: expressed in transfected cells; host or cells: Xenopus laevis oocytes
T2 sequence (P62813 28-455): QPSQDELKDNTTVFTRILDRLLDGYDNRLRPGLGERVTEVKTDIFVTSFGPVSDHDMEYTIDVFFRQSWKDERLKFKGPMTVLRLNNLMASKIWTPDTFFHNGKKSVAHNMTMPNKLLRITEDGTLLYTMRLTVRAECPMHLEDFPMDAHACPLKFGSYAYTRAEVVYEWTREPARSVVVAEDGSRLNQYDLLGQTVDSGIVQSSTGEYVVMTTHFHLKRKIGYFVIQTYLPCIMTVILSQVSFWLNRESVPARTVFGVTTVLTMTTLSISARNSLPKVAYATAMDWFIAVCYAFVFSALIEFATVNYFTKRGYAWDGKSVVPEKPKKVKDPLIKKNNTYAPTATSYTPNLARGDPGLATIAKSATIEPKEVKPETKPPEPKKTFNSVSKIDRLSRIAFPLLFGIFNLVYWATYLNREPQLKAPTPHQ
T2 sequence (P63138 26-474): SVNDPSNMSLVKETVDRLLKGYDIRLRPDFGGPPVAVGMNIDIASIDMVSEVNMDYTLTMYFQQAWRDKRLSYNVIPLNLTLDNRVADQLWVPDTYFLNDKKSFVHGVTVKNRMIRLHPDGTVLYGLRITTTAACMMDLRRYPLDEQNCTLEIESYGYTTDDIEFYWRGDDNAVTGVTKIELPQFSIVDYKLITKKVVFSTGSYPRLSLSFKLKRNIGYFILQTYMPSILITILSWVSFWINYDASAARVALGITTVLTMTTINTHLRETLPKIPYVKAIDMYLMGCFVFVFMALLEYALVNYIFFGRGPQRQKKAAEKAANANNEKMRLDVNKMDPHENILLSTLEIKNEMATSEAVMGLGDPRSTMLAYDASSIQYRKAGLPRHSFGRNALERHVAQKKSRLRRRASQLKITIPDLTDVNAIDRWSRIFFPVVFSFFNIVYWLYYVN
T2 sequence (P18508 other isoform, or with tags, fused parts or gaps INS375LLRMFSFK, further chain): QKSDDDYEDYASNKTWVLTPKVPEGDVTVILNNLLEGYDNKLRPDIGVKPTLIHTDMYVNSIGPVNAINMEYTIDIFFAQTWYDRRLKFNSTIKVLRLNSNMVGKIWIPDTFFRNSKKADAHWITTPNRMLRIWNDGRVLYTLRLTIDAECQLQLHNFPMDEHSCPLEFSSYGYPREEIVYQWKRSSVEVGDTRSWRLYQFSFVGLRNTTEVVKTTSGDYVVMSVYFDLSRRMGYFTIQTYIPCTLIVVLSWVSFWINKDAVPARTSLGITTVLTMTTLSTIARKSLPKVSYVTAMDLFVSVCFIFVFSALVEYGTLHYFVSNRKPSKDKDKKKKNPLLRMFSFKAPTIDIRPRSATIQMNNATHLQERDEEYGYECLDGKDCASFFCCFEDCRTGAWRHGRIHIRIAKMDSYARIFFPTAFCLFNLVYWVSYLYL
Experimental: The compounds of the present disclosure were evaluated for the ability to potentiate chloride currents mediated by 2 μM GABA at rat α1β2γ2L type GABAA receptors expressed in Xenopus laevis oocytes and the results are shown in Table 2.
The potentiation of 2 μM GABA-mediated chloride currents at rat α1β2γ2-type GABAA receptors expressed in frog oocytes by different concentrations of Compound 1, is illustrated by the curves in FIG. 2, as well. ^aThe GABA concentration used for the control response was 2 μM. Each compound was evaluated on at least four different oocytes at the concentrations indicated, and the results reported are the ratio of currents measured in the presence/absence of added compound. Gating represents direct current gated by 10 μM compound in the absence of GABA, and this current is reported as the ratio of compound only current/2 μM GABA current. Error limits are calculated as standard error of the mean (N≥4). Methods used are known in the art (see, e.g., E. Stastna, et al., Neurosteroid Analogues. 16. A New Explanation for the Lack of Anesthetic Effects in Δ^16-Alphaxalone and Identification of a Δ^17(20) Analogue with Potent Anesthetic Activity, J. Med. Chem., 54(11), pp. 3926-34 (2011)).

[3] = test system: tadpoles; test: Tadpole loss of righting reflex (LRR) and loss of swimming reflex (LSR); assay type: in vivo; settings: ± SEM
Description: Table 3 discloses the anesthetic effects of the compounds of the present disclosure. In particular, the anesthetic effect of the compounds of the present disclosure on Loss of Righting Reflex (LRR) and Loss of Swimming Reflex (LSR).
A quantal dose-response curve for loss of righting reflect (LRR) and loss of swimming reflex (LSR) caused by Compound 1 in tadpoles, is illustrated in FIG. 3, as well. ^aMethods used are known in the art (see, e.g., E. Stastna, et al., Neurosteroid Analogues. 16. A New Explanation for the Lack of Anesthetic Effects in Δ^16-Alphaxalone and Identification of a Δ^17(20) Analogue with Potent Anesthetic Activity, J. Med. Chem., 54(11), pp. 3926-34 (2011)). Error limits are calculated as standard error of the mean (N=10 or more animals at each of five or more different concentrations).

[4] = test system: GABAA receptors (picrotoxin binding site); test: [35S]-TBPS displacement (non-competitive displacement from the picrotoxin binding site)
Experimental: as §1, §2

[5] = test system: GABAA receptors; settings: background statement; cited from earlier work
[6] = loss of righting reflex, read-out: Tadpole LRR EC50
[7] = loss of swimming reflex, read-out: Tadpole LSR EC50
[8] = [35S]-TBPS displacement, hydrogenated Δ17(20) double bond

| Compound | IC50 [1] [nM] | Ratio of currents measured in the presence/absence of added compound, 0.1 μM [2] | Ratio of currents measured in the presence/absence of added compound, 1 μM [2] | Ratio of currents measured in the presence/absence of added compound, 10 μM [2] | (gating) 10 μM: ratio of compound only current/2 μM GABA current [2] | EC50 [3, 6] [nM] | EC50 [3, 7] [nM] | melting point [°C] | other results |
| --- | --- | --- | --- | --- | --- | --- | --- | --- | --- |
| COC[C@]12CC[C@@H](O)C[C@@H]1CC[C@@H]1[C@@H]2CC[C@]2(C)/C(=C\C#N)CC[C@@H]12 [Compound 1, [3α,5α,17(20)Z]-19-methoxypregn-17(20)-ene-21-nitrile] | 42 ± 4 | 2.88 ± 0.90 | 15.27 ± 2.58 | 45.80 ± 15.79 | 0.19 ± 0.08 | 159 ± 25 | 970 ± 65 | 166 to 168 |  |
| COC[C@]12CC[C@@H](O)C[C@@H]1CC[C@@H]1[C@@H]2CC[C@]2(C)/C(=C/C#N)CC[C@@H]12 [Compound 2, [3α,5α,17(20)E]-19-methoxypregn-17(20)-ene-21-nitrile] | 657 ± 114 | 0.69 ± 0.11 | 1.26 ± 0.22 | 2.97 ± 0.33 | 0.31 ± 0.25 | 2780 ± 560 | ~10000 | 185 to 188 |  |
| C[C@]12CC[C@@H](O)C[C@@H]1CC[C@H]1[C@@H]3CC[C@H](CC#N)[C@@]3(C)CC(=O)[C@@H]12 [Compound 5c] |  |  |  |  |  |  |  |  | Fold decrease of IC50 value relative to Compound 6b [4, 8]: about twofold; Fold increase of IC50 value relative to Compound 6a [4, 8]: about eight-fold |
| C[C@]12CC[C@@H](O)C[C@@H]1CC[C@@H]1[C@@H]2C(=O)C[C@]2(C)/C(=C\C#N)CC[C@@H]12 [Compound 6a] |  |  |  |  |  |  |  |  | Fold more potent at displacing [35S]-TBPS than the E isomer ([4]; Z isomer versus E isomer (Compound 6a versus Compound 6b)): about 17 fold |
| CC(=O)C1=CC[C@H]2[C@@H]3CC[C@H]4C[C@H](O)CC[C@]4(C)[C@H]3C(=O)C[C@]12C [Δ^16-alphaxalone] |  |  |  |  |  |  |  |  | Allosteric activity at GABAA receptors, in contrast to alphaxalone [5]: greatly diminished allosteric activity |
